Consider two compounds from patent publication US20240174624A1, “CHIRAL N-(1,3,4-OXADIAZOLE-2-YL)PHENYL CARBOXYLIC ACID AMIDES AND THEIR USE AS HERBICIDES” (Bayer Aktiengesellschaft, priority 2021, published 2024).

The test system of one assay is ZEAMX. Description: Pre-emergence damage to crop plants. In kind it is in vivo, Zea mays. The note with it: comparative experiment. An excerpt: (§1) Seeds of monocotyledonous and dicotyledonous weed plants and crop plants are laid out in sandy loam soil in wood-fibre pots and covered with soil. The compounds of the invention, formulated in the form of wettable powders (WP) or as emulsion concentrates (EC), are then applied to the surface of the covering soil in the form of an aqueous suspension or emulsion at a water application rate equivalent to 600 to 800 l/ha, with addition of 0.2% wetting agent. After the treatment, the pots are placed in a greenhouse and kept under good growth conditions for the trial plants. The damage to the test plants is scored visually after a test period of 3 weeks by comparison with untreated controls (herbicidal activity in percent (%): 100% activity=the plants have died, 0% activity=like control plants). […] The tables below illustrate, in an illustrative manner, the post-emergence herbicidal action of the compounds of the invention, the herbicidal activity being stated in percent. In the experiments that follow, the herbicidal action of the compounds of the invention and that of the corresponding known racemic compounds closest from WO2012126932 and WO2018202535 were compared under the above-specified conditions by the pre-emergence and post-emergence method. The example numbers given in the tables relate to the compounds disclosed in the respective documents.

Assay [1] deals with TRZAS. Description: Pre-emergence damage to crop plants. Format: in vivo, Triticum aestiva. The following applies: comparative experiment.
Description: as §1

A further assay concerns GLXMA. Description: Pre-emergence damage to crop plants. In kind it is in vivo, Glycine max. The note with it: 80 g a.i./ha, comparative experiment.
Description: as §1

The next assay deals with BRSNW. Description: Pre-emergence damage to crop plants. The following applies: 20 g a.i./ha, comparative experiment. Format: in vivo, Brassica napus.
Description: as §1

Another assay concerns ORYZA. The assay can be described thus: Post-emergence damage to crop plants. Format: in vivo, Oryza sativa. The following applies: 5 g a.i./ha, comparative experiment. How it is done:
(§2) Seeds of monocotyledonous and dicotyledonous weed and crop plants are laid out in sandy loam soil in wood-fibre pots, covered with soil and cultivated in a greenhouse under good growth conditions. 2 to 3 weeks after sowing, the test plants are treated at the one-leaf stage. The compounds of the invention, formulated in the form of wettable powders (WP) or as emulsion concentrates (EC), are then sprayed onto the green parts of the plants in the form of an aqueous suspension or emulsion at a water application rate equating to 600 to 800 l/ha, with addition of 0.2% wetting agent. After the test plants have been left to stand in the greenhouse under optimal growth conditions for about 3 weeks, the action of the preparations is assessed visually in comparison to untreated controls (herbicidal action in percent (%): 100% activity=the plants have died, 0% activity=like control plants). […] The tables below illustrate, in an illustrative manner, the post-emergence herbicidal action of the compounds of the invention, the herbicidal activity being stated in percent. In the experiments that follow, the herbicidal action of the compounds of the invention and that of the corresponding known racemic compounds closest from WO2012126932 and WO2018202535 were compared under the above-specified conditions by the pre-emergence and post-emergence method. The example numbers given in the tables relate to the compounds disclosed in the respective documents.

The test system of assay [2] is TRZAS. The assay can be described thus: Post-emergence damage to crop plants. The following applies: comparative experiment. In kind it is in vivo, Triticum aestiva. The method, then: as §2
Another assay relates to ECHCG. Description: Post-emergence herbicidal action. In kind it is in vivo, Echinochloa crus-galli. The following applies: 5 g a.i./ha, comparative experiment. The method, then: as §2

Turning to `Cc1c(C(=O)Nc2nnco2)ccc(C(F)(F)F)c1[S+](C)[O-]` (racemic) [1-144 from WO2012126932, 2-methyl-N-(1,3,4-oxadiazol-2-yl)-3-[(rac)-methylsulfinyl]-4-(trifluoromethyl)benzamide, reference compound], the “Damage to ZEAMX” value is listed as 20% in the assay on ZEAMX (20 g a.i./ha) and 30% in the assay with ZEAMX (80 g a.i./ha). Moreover, the “Damage to TRZAS” value was determined as 50% in the assay on TRZAS [1] (20 g a.i./ha), 90% in the assay on TRZAS [1] (80 g a.i./ha), 40% in the assay on TRZAS [2] (5 g a.i./ha) and 50% in the assay on TRZAS [2] (20 g a.i./ha). Besides, the “Damage to GLXMA” value with GLXMA is given as 80%. Moreover, the “Damage to BRSNW” value in the assay on BRSNW is 100%. In the assay on ORYZA, the “Damage to ORYZA” value turned out to be 60%.

Take `C[S+]([O-])c1c(C(F)F)ccc(C(=O)Nc2nnco2)c1Cl` (racemic) [Racemate, known from WO2018202535, 2-chloro-N-(1,3,4-oxadiazol-2-yl)-3-[(rac)-methylsulfinyl]-4-(difluoromethyl)benzamide, reference compound]: the “Damage to TRZAS” value with TRZAS [1] (20 g a.i./ha) was 70%; in the assay on TRZAS [1] (80 g a.i./ha), 100%. Besides, the “Damage to GLXMA” value in the assay on GLXMA is given as 80%. The “Herbicidal action against ECHCG” value with ECHCG worked out at 70%. Moreover, in the assay with ORYZA, the “Damage to ORYZA” value turned out to be 60%.
